Assay results published in patent US6110961A, “Phenoxathin derivatives as inhibitors of monoamine oxidase” (Krenitsky Pharmaceuticals, Inc., priority 1999, dated 2000).

Legend:
MAO = conditions: background art; cited from earlier work
MAO-A = biological target: T1, MAO-A (Rattus norvegicus, UniProt P21396); assay: MAO-A inhibition in mitochondrial extracts of rat brain (in vitro, double-label assay); format: biochemical; conditions: [3H]serotonin 0.2 mM substrate
T1 construct: mitochondrial extracts of rat brain; from tissue; host or cells: rat brain, mitochondrial extracts
T1 sequence (P21396 1-526): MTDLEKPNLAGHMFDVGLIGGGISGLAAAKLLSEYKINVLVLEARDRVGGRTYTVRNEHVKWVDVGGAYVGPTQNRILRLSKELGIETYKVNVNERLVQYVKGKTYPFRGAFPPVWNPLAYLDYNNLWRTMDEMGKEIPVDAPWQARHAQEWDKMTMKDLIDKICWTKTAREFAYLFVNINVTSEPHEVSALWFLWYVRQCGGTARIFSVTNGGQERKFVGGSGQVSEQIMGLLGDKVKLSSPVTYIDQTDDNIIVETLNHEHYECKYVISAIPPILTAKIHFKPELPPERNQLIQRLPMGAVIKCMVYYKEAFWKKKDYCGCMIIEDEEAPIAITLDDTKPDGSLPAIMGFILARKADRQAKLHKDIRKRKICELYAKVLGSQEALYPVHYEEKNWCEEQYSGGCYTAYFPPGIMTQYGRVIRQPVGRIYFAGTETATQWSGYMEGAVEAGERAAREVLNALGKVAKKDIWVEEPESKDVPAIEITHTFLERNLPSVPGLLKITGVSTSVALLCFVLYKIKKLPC
Experimental: MAO was assayed with [^3 H]serotonin (0.2 mM, 5 Ci/mole) and [^14 C]β-phenethylamine (10 μM, 3 Ci/mole) as substrates in a double-label assay (white and Glassman, J. Neurochem. 29:987-97 (1977)). Under these conditions, serotonin is selectively metabolized by MAO-A and β-phenethylamine by MAO-B. […]
Compounds of formula (I) produced a potent selective inhibition of MAO-A in mitochondrial extracts of rat brain, the IC50 s (concentration producing 50% inhibition) being shown in Table I. This inhibition was competitive vs. the substrates serotonin or tyramine.
The results are shown in Table 1 with the IC50 being the concentration providing 50% inhibition. No significant inhibition of MAO-B was found with these compounds.

liver MAO-A = conditions: single oral dose giving approximately 80% inhibition of brain MAO-A; 3 hours

IC50 (MAO-A) [nM] | SMILES | other results
 | Cc1cc(C(=O)NNCc2ccccc2)no1 [isocarboxazid] | selectivity and reversibility of MAO inhibition (MAO): non-selective, irreversible inhibitors
14 | CC(Oc1ccc2c(c1)Oc1ccccc1S2(=O)=O)C(F)(F)F (single isomer, unassigned) [Compound 30, (S*)-3-(2,2,2-trifluoro-1-methylethoxy)phenoxathiin-10,10-dioxide] | 
35 | CC(C)Oc1cc2c(cc1F)S(=O)(=O)c1ccc(F)cc1O2 [Compound 16, 2,7-difluoro-3-isopropoxyphenoxathiin 10,10-dioxide] | 
 | NNCCc1ccccc1 [phenelzine] | inhibition of liver MAO-A (liver MAO-A): ≥ 90%; selectivity and reversibility of MAO inhibition (MAO): non-selective, irreversible inhibitors
5 | CC(C)Oc1cc(F)c2c(c1)Oc1cc(F)ccc1S2(=O)=O [Compound 19, 1,7-difluoro-3-isopropoxyphenoxathiin 10,10-dioxide] | 
9 | CC(C)Oc1ccc2c(c1)Oc1cc(F)ccc1S2(=O)=O [Compound 11, 7-fluoro-3-isopropoxyphenoxathiin 10,10-dioxide] | 
70 | C[C@@H](CO)Oc1ccc2c(c1)Oc1ccccc1S2(=O)=O [Compound 21, (S)-(+)-2-(3-phenoxathiinyloxy)propanol S,S-dioxide] | 
3.5 | O=S1(=O)c2ccccc2Oc2cc(OC(C(F)F)C(F)F)ccc21 [Compound 24, 3-(2,2-(difluoro)-1-(difluoromethyl)ethoxy)phenoxathiin-10,10-dioxide] | 
20 | CC(CO)Oc1ccc2c(c1)Oc1ccccc1S2(=O)=O (racemic) [Compound 18, (rac)-2-(3-phenoxathiinyloxy)propanol S,S-dioxide] | 
14 | CCC(C)Oc1ccc2c(c1)Oc1ccccc1S2(=O)=O (racemic) [Compound 13, (rac)-3-(1-methylpropoxy)phenoxathiin-10,10-dioxide] | 
5 | O=S1(=O)c2ccccc2Oc2cc(OC(CO)C(F)(F)F)ccc21 (racemic) [Compound 28, (rac)-2-(3-phenoxathiinyloxy)-2-(trifluoromethyl)ethanol-S,S-dioxide] | 
8 | CC(C)Oc1ccc2c(c1)Oc1cccc(F)c1S2(=O)=O [Compound 10, 9-fluoro-3-isopropoxyphenoxathiin 10,10-dioxide] | 
 | O=S1(=O)c2ccccc2Oc2cc(OC(CF)C(F)(F)F)ccc21 (racemic) [Compound 26, (rac)-3-(2-fluoro-1-(trifluoromethyl)ethoxy)phenoxathiin-10,10-dioxide] | MAO-A Inhibition (rat brain) in vitro IC50 (MAO-A): active
3 | CC(C)Oc1cc2c(c(F)c1F)S(=O)(=O)c1ccccc1O2 [Compound 4, 1,2-difluoro-3-isopropoxyphenoxathiin 10,10-dioxide] | 
4 | CC[C@@H](C)Oc1ccc2c(c1)Oc1ccccc1S2(=O)=O [Compound 6, (R)-3-(1-methylpropoxy)phenoxathiin 10,10-dioxide] | 
 | N[C@@H]1C[C@H]1c1ccccc1 (relative stereo) [tranylcypromine] | selectivity and reversibility of MAO inhibition (MAO): non-selective, irreversible inhibitors

IC50 (MAO-A) [nM] | SMILES | other results
8 | O=S1(=O)c2ccccc2Oc2cc(OCC(F)(F)F)ccc21 [Compound 22, 3-(2,2,2-trifluoroethoxy)phenoxathiin 10,10-dioxide] | 
1.8 | CC(Oc1ccc2c(c1)Oc1ccccc1S2(=O)=O)C(F)F (racemic) [Compound 25, (rac)-3-(1-(difluoromethyl)ethoxy)phenoxathiin-10,10-dioxide] | 
12 | CC(C)Oc1cc2c(cc1F)S(=O)(=O)c1ccccc1O2 [Compound 12, 2-fluoro-3-isopropoxyphenoxathiin 10,10-dioxide] | 
2 | O=S1(=O)c2ccccc2Oc2cc(OC(CF)CF)ccc21 [Compound 23, 3-[2-fluoro-1-(fluoromethyl)ethoxy]phenoxathiin-10,10-dioxide] | 
1.1 | CC(C)Oc1cc(F)c2c(c1)Oc1ccccc1S2(=O)=O [Compound 1, 1-fluoro-3-isopropoxyphenoxathiin 10,10-dioxide] | 
6 | CC(C)Oc1ccc2c(c1)Oc1cc(F)c(F)cc1S2(=O)=O [Compound 9, 7,8-difluoro-3-isopropoxyphenoxathiin-10,10-dioxide] | 
 | CC(CF)Oc1ccc2c(c1)Oc1ccccc1S2(=O)=O (racemic) [Compound 27, (rac)-3-(1-(fluoromethyl)ethoxy)phenoxathiin-10,10-dioxide] | MAO-A Inhibition (rat brain) in vitro IC50 (MAO-A): active
2 | CC(Oc1ccc2c(c1)Oc1ccccc1S2(=O)=O)C(F)(F)F (single isomer, unassigned) [Compound 29, (R*)-3-(2,2,2-trifluoro-1-methylethoxy)phenoxathiin-10,10-dioxide] | 
20 | COc1ccc2c(c1)Oc1ccccc1S2(=O)=O [Compound 14, 3-methoxyphenoxathiin 10,10-dioxide] | 
55 | CCCCCOc1ccc2c(c1)Oc1ccccc1S2(=O)=O [Compound 17, 3-(pentyloxy)phenoxathiin 10,10-dioxide] | 
2 | CCOc1ccc2c(c1)Oc1ccccc1S2(=O)=O [Compound 2, 3-ethoxyphenoxathiin 10,10-dioxide] | 
4 | CC[C@H](C)Oc1ccc2c(c1)Oc1ccccc1S2(=O)=O [Compound 7, (S)-3-(1-methylpropoxy)phenoxathiin 10,10-dioxide] | 
 | O=S1(=O)c2ccc(F)cc2Oc2cc(OCC(F)(F)F)ccc21 [Compound 31, 3-fluoro-7-(2,2,2-trifluoroethoxy)phenoxathiin-10,10-dioxide] | MAO-A Inhibition (rat brain) in vitro IC50 (MAO-A): active
2.5 | CCCOc1ccc2c(c1)Oc1ccccc1S2(=O)=O [Compound 3, 3-propoxyphenoxathiin 10,10-dioxide] | 
5 | CC(Oc1ccc2c(c1)Oc1ccccc1S2(=O)=O)C(F)(F)F (racemic) [Compound 20, (rac)-3-(2,2,2-trifluoro-1-methylethoxy)phenoxathiin-10,10-dioxide] | 
3.4 | CC(C)Oc1ccc2c(c1)Oc1ccccc1S2(=O)=O [Compound 5, 3-isopropoxyphenoxathiin 10,10-dioxide] | 

SMILES | IC50 (MAO-A) [nM] | other results
CC(C)(C)Oc1ccc2c(c1)Oc1ccccc1S2(=O)=O [Compound 15, 3-tert-butoxyphenoxathiin 10,10-dioxide] | 26 | 
CCCCOc1ccc2c(c1)Oc1ccccc1S2(=O)=O [Compound 8, 3-butoxyphenoxathiin 10,10-dioxide] | 5 | 
